Test system: Mycobacterium tuberculosis variant bovis
Test: GSK_TB: Effect of compound calculated as % inhibition at single shot or pIC50 ( pIC50 ATP assay M.bovis)
Type: functional, organism-based
Details: BCG / Pasteur

Row | SMILES | IC50
1 | O=C(NCc1ccco1)N1CCN(Cc2ccc3c(c2)CCO3)CC1 | 2.51 µM
2 | COc1ccc2nccc(NC(=O)C3CCN(CCc4ccc(Cl)cc4)CC3)c2n1 | 5.01 µM
3 | O=C(NCc1ccoc1)N1CCN(Cc2ccc3c(c2)OCO3)CC1 | 1.26 µM
4 | CCCC/C=C/c1cc2ccncc2cc1OC1CCNCC1 | 2.51 µM
5 | O=C(NCc1ccco1)N1CCN(Cc2ccc(Cl)s2)CC1 | 1.26 µM
6 | Nc1ccccc1Nc1ccc(Cl)cc1 | 0.1 µM
7 | NCC(c1cccs1)S(=O)(=O)c1ccccc1 (stereo not given) | 5.01 µM
8 | NS(=O)(=O)c1ccc(Nc2cnc3ccccc3n2)cc1 | 6.31 µM
9 | O=C(NCc1ccco1)N1CCN(Cc2cccs2)CC1 | 7.94 µM
10 | O=S(=O)(NCc1ccccc1)c1ccc(-c2cc3ccncc3cc2OC2CCNCC2)s1 | 2 µM
11 | CNc1snc(C)c1C(=O)NCCOc1ccc(OC)cc1 | 3.16 µM
12 | COc1ccc(-c2nnc3sc(Cc4csc(C)n4)nn23)cc1 | 5.01 µM
13 | CNc1nc(SC)nnc1-c1cccc(Cl)c1Cl | 12.6 µM
14 | Nc1ccc(C(O)CNCCc2ccccc2)cc1O (stereo not given) | 2 µM
15 | O=C(Nc1nc2c(s1)CCCc1cccnc1-2)c1ccccc1C(F)(F)F | 2.51 µM
16 | NC(=O)c1ccc(CN(C2CC2)S(=O)(=O)c2ccccc2F)cc1 | 12.6 µM
17 | NC(=O)c1cc2ccc(CC(=O)c3cccs3)cc2s1 | 15.8 µM
18 | CN(Cc1ccc(Cl)cc1)C(=O)CCc1nc2ccccc2oc1=O | 3.98 µM
19 | Clc1nnc(N2CCCC2)c2ccccc12 | 3.16 µM
20 | Cc1nc(Nc2cnn(Cc3ccccc3F)c2)c2nn(C)c(C)c2n1 | 2.51 µM
21 | O=[N+]([O-])c1cnc(-c2nc3ccccc3[nH]2)s1 | 3.98 µM
22 | CCOCn1ccc(NS(=O)(=O)c2ccc(N)cc2)nc1=O | 3.16 µM
23 | FC(F)(F)Oc1ccc(-c2cc3ccncc3cc2OC2CCNCC2)cc1 | 3.16 µM
24 | CCCCNCC1COc2ccc(OC)cc2C1=O (stereo not given) | 6.31 µM
25 | COc1ccc(Nc2nc(N[C@@H]3CCNC3)nc3cc[nH]c(=O)c23)cc1NC(=O)c1ccccc1 | 5.01 µM

Row | SMILES | IC50
26 | N#Cc1ncn(-c2ccc3nnc(C(F)(F)F)n3n2)n1 | 7.94 µM
27 | Cn1cc(CCNC(=O)Nc2ccc(N3CCCCC3)nc2)cn1 | 20 µM
28 | c1ccc(-c2ncc(-c3ccc(OCCCn4ccnc4)cc3)s2)cc1 | 7.94 µM
29 | CC(C)N(C(=O)CNc1ccccc1Nc1ccccc1)c1ccccc1 | 6.31 µM
30 | COc1ccc(Nc2ncccc2N)cc1 | 0.794 µM
31 | Fc1ccc(Cc2nnc(-c3ccnc(Nc4ccc(OCCN5CCOCC5)cc4)n3)[nH]2)cc1 | 7.94 µM
32 | CC1CC1c1ccc(CN2CCc3nc(Nc4ccccc4)sc3CC2)o1 (stereo not given) | 6.31 µM
33 | FC(F)(F)c1nnc2ccc(Sc3nnc(-c4ccco4)o3)nn12 | 3.16 µM
34 | Cc1ccc2oc(SCC(=O)Nc3nccs3)nc2n1 | 6.31 µM
35 | COC(=O)c1ccc(Oc2ccc(-c3csc(C)n3)cc2F)nn1 | 20 µM
36 | CC(C)c1noc(N2CCC([C@H](C)Oc3cnc(-c4ccc(S(C)(=O)=O)c(F)c4)cn3)CC2)n1 | 6.31 µM
37 | O=C(NCCO)c1c(O)c2ncc(Cc3ccc(F)cc3C(F)(F)F)cc2[nH]c1=O | 5.01 µM
38 | COc1ccc(CCNC(=O)C2(n3cnnn3)CCCCC2)cc1 | 3.98 µM
39 | O=C(O)CCc1nc2ccccc2oc1=O | 7.94 µM
40 | O=C(Nc1nc(-c2ccccn2)cs1)N1CCC(Cc2ccc(F)cc2)CC1 | 3.98 µM
41 | CCCCc1ccc(C(=O)Nc2nnc(S(=O)(=O)CCCC)s2)nc1 | 7.94 µM
42 | CC(C)Oc1ccc(-c2nnc(-c3ccc4c(c3)CCNCC4)s2)cc1Cl | 2.51 µM
43 | N#Cc1cccc(-c2ccc(NC[C@H]3CC[C@]4(CC3)CN(c3cccnn3)C(=O)O4)nc2)c1 | 25.1 µM
44 | N#Cc1cc(C(F)(F)F)c2nc(C(=O)NCc3cccs3)c(Cl)n2c1 | 6.31 µM
45 | CCOc1cc2ccccc2cc1C(=O)NC | 6.31 µM
46 | Cc1ccc2c(c1)c(=O)cc(C(F)(F)F)n2CCNC(=O)c1ccccn1 | 6.31 µM
47 | Fc1cccc(Oc2cc(C3CCCNC3)nc(-c3ccncc3)n2)c1 (stereo not given) | 12.6 µM
48 | Cc1c(C(=O)NCCOc2ccccc2)[nH]c2c1C(=O)CCC2 | 7.94 µM
49 | COc1ccc(CN2CCN(C(=O)/C=C/c3csc(C)n3)CC2)cc1 | 5.01 µM
50 | Nc1ccc(S(=O)(=O)Nc2ccnn2-c2ccccc2)cc1 [SULFAPHENAZOLE] | 10 µM
